Reference: ChEMBL document CHEMBL3864170, “Pyrazole Inhibitors of GluN2B NMDA Receptor Subunit” (ACS Med Chem Lett, 2016)

Columns and labels:
[1] = Antidepressive activity in po dosed NMRI mouse assessed as reduction in duration of immobility administered 30 mins prior to the test measured on last 4 mins of the 10 mins test by force swim test; assay type: functional, organism-based
[2] = molecular target: Glutamate receptor ionotropic, NMDA 2B (Rattus norvegicus, UniProt Q00960); experiment: Antagonist activity at Wistar rat brain NR2B assessed as inhibition of glutamate/glycine-induced Ca2+ flux measured after 90 secs
[3] = molecular target: hERG (KCNH2) (Homo sapiens, UniProt Q12809); experiment: Displacement of [3H]-dofetilide from human ERG expressed in HEK293 cell membranes after 90 mins by scintillation counting; details: membranes of HEK293 cells that express human ERG, probe [3H]-dofetilide
hERG (KCNH2), sequence (Q12809 whole entry): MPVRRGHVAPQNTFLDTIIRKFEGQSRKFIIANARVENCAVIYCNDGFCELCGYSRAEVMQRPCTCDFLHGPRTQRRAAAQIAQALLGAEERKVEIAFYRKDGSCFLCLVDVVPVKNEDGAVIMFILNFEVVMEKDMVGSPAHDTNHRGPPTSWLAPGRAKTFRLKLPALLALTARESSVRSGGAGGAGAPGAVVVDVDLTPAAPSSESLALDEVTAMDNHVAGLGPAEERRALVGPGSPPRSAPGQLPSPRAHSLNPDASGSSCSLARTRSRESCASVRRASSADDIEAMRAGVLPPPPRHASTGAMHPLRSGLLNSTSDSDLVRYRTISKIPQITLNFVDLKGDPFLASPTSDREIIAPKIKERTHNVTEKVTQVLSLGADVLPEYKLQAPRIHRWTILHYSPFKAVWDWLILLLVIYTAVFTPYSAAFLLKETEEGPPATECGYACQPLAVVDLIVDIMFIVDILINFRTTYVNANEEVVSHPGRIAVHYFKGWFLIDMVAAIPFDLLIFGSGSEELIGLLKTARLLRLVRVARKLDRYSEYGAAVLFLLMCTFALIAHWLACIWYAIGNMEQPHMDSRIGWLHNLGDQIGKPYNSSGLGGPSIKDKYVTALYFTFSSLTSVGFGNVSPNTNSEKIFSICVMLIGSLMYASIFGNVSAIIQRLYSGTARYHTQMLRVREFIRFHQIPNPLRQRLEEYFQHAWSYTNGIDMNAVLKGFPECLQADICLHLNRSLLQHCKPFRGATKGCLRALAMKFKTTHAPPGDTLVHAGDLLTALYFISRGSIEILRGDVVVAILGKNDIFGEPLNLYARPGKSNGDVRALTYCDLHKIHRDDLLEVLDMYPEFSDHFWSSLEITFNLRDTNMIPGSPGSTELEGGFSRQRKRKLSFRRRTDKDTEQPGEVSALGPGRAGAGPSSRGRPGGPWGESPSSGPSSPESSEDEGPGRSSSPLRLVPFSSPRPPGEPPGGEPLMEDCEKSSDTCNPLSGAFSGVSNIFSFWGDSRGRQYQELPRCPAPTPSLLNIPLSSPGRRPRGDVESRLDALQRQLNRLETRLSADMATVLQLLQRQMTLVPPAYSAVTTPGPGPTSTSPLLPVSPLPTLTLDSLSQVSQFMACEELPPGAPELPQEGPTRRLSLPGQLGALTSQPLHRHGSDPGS

Glutamate receptor ionotropic, NMDA 2B, sequence (Q00960 whole entry): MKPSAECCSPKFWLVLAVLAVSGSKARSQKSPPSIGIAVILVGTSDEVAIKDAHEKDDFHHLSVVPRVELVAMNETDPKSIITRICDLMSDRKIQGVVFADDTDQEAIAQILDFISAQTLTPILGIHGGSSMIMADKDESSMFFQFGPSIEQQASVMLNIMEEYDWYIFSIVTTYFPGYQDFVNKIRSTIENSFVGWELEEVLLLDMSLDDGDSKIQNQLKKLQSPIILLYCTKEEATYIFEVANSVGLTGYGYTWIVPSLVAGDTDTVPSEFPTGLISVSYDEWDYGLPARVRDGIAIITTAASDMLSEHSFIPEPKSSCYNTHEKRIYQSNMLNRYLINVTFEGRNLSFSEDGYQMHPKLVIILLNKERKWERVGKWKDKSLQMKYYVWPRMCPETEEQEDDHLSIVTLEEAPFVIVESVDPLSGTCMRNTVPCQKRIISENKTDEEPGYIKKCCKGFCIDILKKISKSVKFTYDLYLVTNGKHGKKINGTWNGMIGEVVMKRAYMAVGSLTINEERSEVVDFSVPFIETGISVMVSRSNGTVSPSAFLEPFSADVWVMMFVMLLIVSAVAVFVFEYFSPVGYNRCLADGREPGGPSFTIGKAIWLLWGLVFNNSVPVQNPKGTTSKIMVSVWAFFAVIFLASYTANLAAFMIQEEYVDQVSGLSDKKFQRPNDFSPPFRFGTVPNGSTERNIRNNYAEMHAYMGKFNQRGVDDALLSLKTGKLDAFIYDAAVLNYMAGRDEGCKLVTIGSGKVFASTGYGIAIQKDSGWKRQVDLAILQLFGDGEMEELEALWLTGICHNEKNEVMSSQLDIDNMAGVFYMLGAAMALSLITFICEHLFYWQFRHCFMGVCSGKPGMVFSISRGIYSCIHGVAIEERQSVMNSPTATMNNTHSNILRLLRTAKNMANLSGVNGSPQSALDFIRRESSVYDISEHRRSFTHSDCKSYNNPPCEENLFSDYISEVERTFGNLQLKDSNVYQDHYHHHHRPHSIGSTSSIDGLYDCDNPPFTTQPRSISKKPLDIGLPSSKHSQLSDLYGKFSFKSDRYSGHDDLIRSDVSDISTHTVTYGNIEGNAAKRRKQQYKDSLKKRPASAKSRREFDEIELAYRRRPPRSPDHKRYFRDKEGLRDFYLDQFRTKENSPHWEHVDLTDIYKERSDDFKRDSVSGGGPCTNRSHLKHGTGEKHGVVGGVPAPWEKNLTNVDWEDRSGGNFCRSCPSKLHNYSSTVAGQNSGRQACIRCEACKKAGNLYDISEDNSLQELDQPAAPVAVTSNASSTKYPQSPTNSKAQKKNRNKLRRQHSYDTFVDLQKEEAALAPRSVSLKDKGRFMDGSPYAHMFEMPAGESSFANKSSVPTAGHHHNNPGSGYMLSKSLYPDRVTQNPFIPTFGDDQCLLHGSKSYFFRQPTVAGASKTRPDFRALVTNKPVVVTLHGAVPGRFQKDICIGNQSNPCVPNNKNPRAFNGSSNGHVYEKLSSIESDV

| SMILES | MED [1] [mg/kg] | IC50 [2] [nM] | IC50 at 90 min [3] [nM] |
| --- | --- | --- | --- |
| Fc1ccc(-c2cnn(Cc3cc[nH]n3)c2)cc1OC(F)F | 10 | – | – |
| Cn1ccc(Cn2cc(-c3ccc(Cl)c(OC(F)F)c3)cn2)n1 | 30 | – | – |
| FC(F)Oc1cc(-c2cnn(Cc3cn[nH]c3)c2)ccc1Cl | – | 8.23 | 52600 |
| Cn1ccc(Cn2cc(-c3ccc(Cl)c(C(F)(F)F)c3)cn2)n1 | – | 1010 | 3470 |
